Results reported in patent US12319655B2, “RAF kinase inhibitors and methods of use thereof” (Deciphera Pharmaceuticals, LLC, priority 2021, dated 2025).

tested on: H2405 cells; assay: H2405 Cell Proliferation Assay (2); assay type: cell-based; details: Homo sapiens, NCI-H2405
Procedure: H2405 Cell Proliferation Assay (2)
H2405 cells (catalog #CRL-5994) are obtained from the American Type Culture Collect (ATTC, Manassas, VA). Briefly, cells were grown in RPMI 1640 supplemented with 5% characterized fetal bovine serum (Invitrogen, Carlsbad, CA) and 1% Penicillin/Streptomycin/L-Glutamine at 37° C., 5% CO2, and 95% humidity. Cells are expanded until reaching 70-95% confluency at which point they are sub-cultured or harvested for assay use. A serial dilution of test compound is dispensed into a 384-well black clear bottom plate in triplicate. Seven hundred fifty cells are added per well in 50 μL complete growth medium in the 384-well plate. Plates are incubated for 67-72 h at 37° C., 5% CO2, and 95% humidity. At the end of the incubation, 10 μL of a 440 μM solution of resazurin (Sigma, St. Louis, MO) in PBS is added to each well of the plate and plates are incubated for an additional 5-6 h at 37° C., 5% CO2, and 95% humidity. Plates are read on a Synergy2 or equivalent reader (Biotek, Winooski VT) using an excitation of 540 nm and an emission of 600 nm. Data is analyzed using Prism software (GraphPad, San Diego, CA) to calculate IC50 values

| SMILES | IC50 [nM] |
| --- | --- |
| CNC(=O)c1cc(-c2cc(-c3cc(NC(=O)c4ccnc(C5CC5)c4)ccc3C)ccn2)ccn1 [Example 460] | 100 to 500 |
| CNC(=O)c1cc(-c2cc(-c3cc(NC(=O)c4ccnc(C5CC5)c4)cnc3C)ccn2)ccn1 [Example 462] | 500 to 1000 |
| CNC(=O)c1cc(-c2cc(-c3cc(NC(=O)c4ccnc(C(C)C)c4)cnc3C)ccn2)ccn1 [Example 465] | 100 to 500 |
| Cc1ncc(NC(=O)c2ccnc(C(C)(F)F)c2)cc1-c1ccnc(-c2ccnc(NC(=O)C3CC3)c2)c1 [Example 466] | 100 to 500 |
| CNC(=O)c1cc(-c2cc(-c3cc(NC(=O)c4ccnc(C(C)(C)F)c4)ccc3C)c(F)cn2)ccn1 [Example 469] | 100 to 500 |
| CNC(=O)c1cc(-c2cc(-c3cc(NC(=O)c4ccnc(C(C)(C)F)c4)ccc3C(F)(F)F)ccn2)ccn1 [Example 471] | 1000 to 10000 |
| CNC(=O)c1cc(-c2cc(-c3cc(NC(=O)c4ccnc(C(C)(C)F)c4)ccc3C)c(C)cn2)ccn1 [Example 472] | 100 to 500 |
| CNC(=O)c1cc(-c2cc(-c3cc(NC(=O)c4ccnc(C(C)(C)F)c4)ccc3C)cnn2)ccn1 [Example 473] | 100 to 500 |
| CNC(=O)c1cc(-c2cc(-c3cc(F)cc(NC(=O)c4ccnc(C(C)(C)F)c4)c3F)ccn2)ccn1 [Example 475] | 1000 to 10000 |
| CNC(=O)c1cc(-c2cc(-c3cc(NC(=O)c4cnnc(C(F)(F)F)c4)ccc3C)ccn2)ccn1 [Example 477] | 1000 to 10000 |
| CNC(=O)c1cc(-c2cc(-c3cc(NC(=O)c4ccnc(C(C)(C)F)c4)cc(F)c3F)ccn2)ccn1 [Example 478] | ≤ 100 |
| CNC(=O)c1cc(-c2cc(-c3cc(NC(=O)c4ccnc(C(C)(C)F)c4)ccc3F)ccn2)ccn1 [Example 479] | 100 to 500 |
| CNC(=O)c1cc(-c2cc(-c3cc(NC(=O)c4ccnc(C(C)(C)F)c4)cc(F)c3C)ccn2)ccn1 [Example 480] | 100 to 500 |
| CNC(=O)c1cc(-c2cc(-c3cc(NC(=O)c4ccnc(C(C)(C)F)c4)ccn3)ccn2)ccn1 [Example 481] | 1000 to 10000 |
| CNC(=O)c1cc(-c2cc(-c3cc(NC(=O)c4ccnc(C(C)(C)F)c4)c(F)cc3F)ccn2)ccn1 [Example 482] | 100 to 500 |
| Cc1cc(-c2cc(NC(=O)c3ccnc(C(C)(C)F)c3)ccc2C)cc(-c2ccnc(C#N)c2)n1 [Example 483] | 1000 to 10000 |
| Cc1cc(-c2cc(NC(=O)c3ccnc(C(C)(C)F)c3)ccc2C)cc(-c2ccnc(C(N)=O)c2)n1 [Example 484] | 100 to 500 |

More lines, now with the values ahead:

| IC50 [nM] | SMILES |
| --- | --- |
| ≤ 100 | Cc1ncc(NC(=O)c2ccnc(C(C)(C)F)c2)cc1-c1ccnc(-c2ccnc(NC(=O)C3CC3)c2)c1 [Example 454] |
| ≤ 100 | Cc1ccc(NC(=O)c2ccnc(C(C)(C)F)c2)cc1-c1ccnc(-c2ccnc(NC(=O)C3CC3)c2)c1 [Example 455] |
| ≤ 100 | Cc1ccc(NC(=O)c2ccnc(C(C)(C)C#N)c2)cc1-c1ccnc(-c2ccnc(NC(=O)C3CC3)c2)c1 [Example 456] |
| ≤ 100 | Cc1ccc(NC(=O)c2ccnc(C3(C#N)CC3)c2)cc1-c1ccnc(-c2ccnc(NC(=O)C3CC3)c2)c1 [Example 457] |
| ≤ 100 | Cc1ccc(NC(=O)c2ccnc(C3CC3)c2)cc1-c1ccnc(-c2ccnc(NC(=O)C3CC3)c2)c1 [Example 458] |
| ≤ 100 | Cc1ccc(NC(=O)c2ccnc(C(C)(F)F)c2)cc1-c1ccnc(-c2ccnc(NC(=O)C3CC3)c2)c1 [Example 459] |
| ≤ 100 | Cc1ncc(NC(=O)c2ccnc(C3(C#N)CC3)c2)cc1-c1ccnc(-c2ccnc(NC(=O)C3CC3)c2)c1 [Example 461] |
| ≤ 100 | Cc1ccc(NC(=O)c2ccnc(C(C)C)c2)cc1-c1ccnc(-c2ccnc(NC(=O)C3CC3)c2)c1 [Example 467] |
| ≤ 100 | Cc1ncc(NC(=O)c2ccnc(C(C)C)c2)cc1-c1ccnc(-c2ccnc(NC(=O)C3CC3)c2)c1 [Example 468] |
| ≤ 100 | CNC(=O)c1cc(-c2cc(-c3cc(NC(=O)c4ccnc(C(C)(C)F)c4)ccc3C)cc(C)n2)ccn1 [Example 470] |
| ≤ 100 | CNC(=O)c1cc(-c2cc(-c3cc(NC(=O)c4ccnc(C(C)(C)F)c4)ccc3C)ncn2)ccn1 [Example 474] |
| ≤ 100 | Cc1ccc(NC(=O)c2ccnc(C(C)(C)F)c2)cc1-c1ccnc(-c2ccnc(C(N)=O)c2)c1 [Example 476] |
